Source: the supplement of paper PMC10307832

What was measured:
Test in all cases: relative viability (nuclei count vs DMSO), 5 days (fraction); higher = more cells survive
AZ628 + Crizotinib = compound: CC1=C(C=C(C=C1)NC(=O)C2=CC(=CC=C2)C(C)(C)C#N)NC3=CC4=C(C=C3)N=CN(C4=O)C [AZ628] + C[C@@H](Oc1cc(-c2cnn(C3CCNCC3)c2)cnc1N)c1c(Cl)ccc(F)c1Cl [Crizotinib] (partner 1 µM)
Method in brief: (§1)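 Lung cancer cell lines were pin-tool dosed in 1536-well plates on the day after seeding, with either a lone drug or a fixed anchor-drug dose plus five library-drug doses (not always all listed) in √10 steps. Nuclei were counted on 4× images after 5 days. Relative viability is the ratio of treated-well to vehicle-well nuclei counts, with each value a median of duplicate plates.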

AZ628 + Decitabine = compound: CC1=C(C=C(C=C1)NC(=O)C2=CC(=CC=C2)C(C)(C)C#N)NC3=CC4=C(C=C3)N=CN(C4=O)C [AZ628] + Nc1ncn([C@H]2C[C@H](O)[C@@H](CO)O2)c(=O)n1 [Decitabine] (partner 2 µM)
Method in brief: as §1

[1] = compound: C[As](C)SC[C@H](NC(=O)CC[C@H](N)C(=O)O)C(=O)NCC(=O)O [Darinaparsin] + O=C(CCCCCCC(=O)Nc1ccccc1)NO [Vorinostat] (partner 1 µM)
Method in brief: as §1

AZ628 + Vorinostat = compound: CC1=C(C=C(C=C1)NC(=O)C2=CC(=CC=C2)C(C)(C)C#N)NC3=CC4=C(C=C3)N=CN(C4=O)C [AZ628] + O=C(CCCCCCC(=O)Nc1ccccc1)NO [Vorinostat] (partner 1 µM)
Method in brief: as §1

Cell Line	relative viability (AZ628 + Crizotinib; first compound 0.08 µM)	relative viability (AZ628 + Crizotinib; first compound 0.253 µM)	relative viability (AZ628 + Crizotinib; first compound 0.8 µM)	relative viability (AZ628 + Crizotinib; first compound 2.53 µM)	relative viability (AZ628 + Crizotinib; first compound 8 µM)	relative viability (AZ628 + Decitabine; first compound 0.08 µM)	relative viability (AZ628 + Decitabine; first compound 0.253 µM)	relative viability (AZ628 + Decitabine; first compound 0.8 µM)	relative viability (AZ628 + Decitabine; first compound 2.53 µM)	relative viability (AZ628 + Decitabine; first compound 8 µM)	relative viability ([1]; first compound 0.08 µM)	relative viability ([1]; first compound 0.8 µM)	relative viability ([1]; first compound 2.53 µM)	relative viability ([1]; first compound 8 µM)	relative viability (AZ628 + Vorinostat; first compound 0.08 µM)	relative viability (AZ628 + Vorinostat; first compound 0.253 µM)	relative viability (AZ628 + Vorinostat; first compound 0.8 µM)	relative viability (AZ628 + Vorinostat; first compound 2.53 µM)	relative viability (AZ628 + Vorinostat; first compound 8 µM)
HCC-44	0.801	0.857	0.961	0.912	0.721	0.97	0.999	1	0.953	0.947	1.24	1.12	1.05	1.09	1.16	1.17	1.15	1.02	0.491
NCI-H1651	0.864	0.87	0.863	0.902	0.925	0.67	0.571	0.653	0.683	0.593	0.523	0.558	0.58	0.571	0.584	0.491	0.573	0.559	0.561
NCI-H1915	0.976	0.919	0.869	0.727	0.495	0.271	0.259	0.267	0.254	0.169	0.502	0.468	0.485	0.579	0.549	0.606	0.537	0.461	0.462
NCI-H2009	0.848	0.722	0.524	0.703	0.292	0.404	0.36	0.313	0.32	0.291	0.866	0.717	0.645	0.72	0.595	0.783	0.568	0.612	0.405
COR-L 105	1.07	0.728	0.744	0.757	0.438	0.74	0.692	0.668	0.613	0.559	0.908	0.656	0.822	0.932	0.881	0.886	0.796	0.794	0.654
ABC-1	1.37	1.25	0.844	1.02	0.808	1.07	0.898	1.07	1.18	1.07	1.59	1.09	1.05	1.26	1.26	0.789	1.27	0.955	1.07
ChaGo-K-1	1.18	–	1.15	1.11	1.16	0.548	0.504	0.558	0.524	0.481	0.848	0.788	0.754	0.769	0.773	0.75	0.753	0.754	0.743
NCI-H1975	0.957	1.02	0.896	0.927	0.627	0.402	0.358	0.344	0.338	0.265	0.875	0.728	0.741	0.854	0.62	0.668	0.679	0.658	0.42
NCI-H358	0.393	0.435	0.583	0.51	0.32	0.233	0.192	0.184	0.195	0.158	0.744	0.636	0.594	0.745	0.762	0.424	0.386	0.336	0.262
NCI-H3122	0.349	0.252	0.29	0.238	0.234	0.307	0.21	0.221	0.239	0.161	1.18	1.22	0.927	1.36	0.932	0.921	0.737	0.768	0.496
NCI-H2347	0.689	0.832	0.709	0.589	0.443	0.522	0.605	0.582	0.613	0.36	0.477	0.541	0.679	0.718	0.46	0.642	0.447	0.439	0.335
HCC-15	0.81	0.793	0.767	0.77	0.446	0.633	0.521	0.426	0.481	0.29	0.911	0.839	0.851	0.901	0.867	0.728	0.693	0.61	0.348
HCC-366	0.519	0.627	0.308	0.427	0.236	0.345	0.313	0.269	0.292	0.182	0.454	–	0.339	0.436	0.404	0.39	0.399	0.255	0.396
BEN	0.98	0.881	0.698	0.966	0.825	0.758	0.637	0.651	0.668	0.735	0.572	0.602	0.688	0.65	0.615	0.513	0.571	0.557	0.589
NCI-H1993	0.933	0.943	0.873	0.77	0.729	0.587	0.518	0.639	0.463	0.55	0.765	0.855	0.697	0.827	0.751	0.774	0.812	0.62	0.547
NCI-H2405	0.478	0.66	0.522	0.588	0.568	0.552	0.53	0.488	0.495	0.408	1.07	1.02	0.924	1.12	0.884	0.8	0.69	0.707	0.586
NCI-H2126	1.04	0.98	1.06	1.07	1.03	0.567	0.571	0.632	0.606	0.593	0.77	0.687	0.743	0.708	0.862	0.786	0.642	0.729	0.703
LK-2	0.192	0.197	0.244	0.203	0.224	0.308	0.271	0.326	0.338	0.184	0.283	0.268	0.256	0.263	0.272	0.244	0.396	0.275	0.222
SK-MES-1	0.953	0.93	1.08	1.15	0.882	0.448	0.379	0.434	0.43	0.338	1.11	1.07	0.924	1.43	1.07	1.18	1.04	1.1	0.572
NCI-H1944	1.2	1.09	0.97	0.973	0.878	0.426	0.434	0.414	0.416	0.282	0.595	0.542	0.61	0.682	0.613	0.547	0.508	0.468	0.444
SW 1573	0.664	0.587	0.707	0.598	0.425	0.503	0.445	0.435	0.408	0.374	0.837	0.754	0.653	0.738	1.01	0.641	0.592	0.575	0.508
PC-14	0.909	0.839	1.04	0.976	0.726	0.255	0.228	0.168	0.19	0.166	0.691	0.753	0.545	0.572	0.762	0.745	0.632	0.677	0.232
LC-2-ad	0.503	0.457	0.448	0.44	0.505	0.821	0.782	0.816	0.732	0.453	0.805	0.762	0.657	0.829	0.78	0.865	0.796	0.74	0.656
201T	1.05	0.999	1.06	1.06	1.08	0.869	0.859	0.874	0.911	0.858	1.03	0.905	0.917	1.14	1.06	1.02	1.08	1.04	1.08
NCI-H2023	0.638	0.663	0.622	0.635	0.478	0.292	0.229	0.24	0.228	0.252	0.662	0.554	0.707	0.666	0.825	0.61	0.542	0.636	0.405
HOP-62	1.06	0.834	0.926	1.16	0.412	0.235	0.265	0.236	0.249	0.214	0.765	0.654	0.522	0.819	0.641	0.701	0.641	0.432	0.289
NCI-H661	0.975	–	–	1.1	1.01	0.601	0.491	0.445	0.451	0.482	0.86	0.729	0.753	0.858	0.831	0.916	0.818	0.778	0.743
NCI-H1734	0.561	0.574	0.568	0.621	0.381	0.515	0.549	0.5	0.457	0.344	0.934	0.752	0.773	0.746	0.923	0.773	0.761	0.772	0.463
